According to ChEMBL document CHEMBL1159140, “DuP 747: sar study” (1992):

Experiments:
Mus musculus [1] = organism: Mus musculus; experiment: animal or person; format: functional; settings: po
Mus musculus [2] = organism: Mus musculus; experiment: animal or person; format: functional; settings: sc

Structure (SMILES) | ED50 (Mus musculus [1]) [mg/kg] | ED50 (Mus musculus [2]) [mg/kg]
COc1ccc2c(c1)CC[C@H](N1CC=CC1)[C@H]2N(C)C(C)=O.Cl | 3.4 | 0.24
COc1ccc2c(c1)CC[C@H](N1CCCC1)[C@H]2N(C)C=O.Cl | 81 | 47
CN(C(=O)Cc1ccc(Cl)c(Cl)c1)[C@H]1c2cccc(OC(=O)c3ccccc3)c2CC[C@@H]1N1CCCC1.Cl | 6.4 | 0.71
COc1ccc2c(c1)CC[C@H](N1CCCCC1)[C@H]2N(C)C(C)=O.Cl | > 81 | > 81
COc1cccc2c1CC[C@H](N1CCCC1)[C@H]2N(C)C(=O)CCc1ccc(Cl)c(Cl)c1.Cl | 81 | 38
COc1cccc2c1CC[C@H](N1CCCC1)[C@H]2N(C)C(=O)CSc1ccc(Cl)c(Cl)c1.Cl | > 81 | 47
CN(C(=O)Cc1ccc(Cl)c(Cl)c1)[C@H]1c2ccccc2-c2ccccc2[C@@H]1N1CCCC1.Cl | > 81 | > 81
COc1ccc2c(c1)CC[C@H](N1C=CN(C)CC1)[C@H]2N(C)C(C)=O.Cl | > 81 | > 81
CN(C(=O)Cc1ccc(Cl)c(Cl)c1)[C@H]1CCc2ccccc2[C@@H]1N1CCCC1.Cl | > 81 | 0.16
